Experimental data: US12522583B2, “Benzimidazole derivatives and aza-benzimidazole derivatives as Janus kinase 2 inhibitors and uses thereof” (Dana-Farber Cancer Institute, Inc., priority 2018, dated 2026)

Assays:
Test in all cases: KINOMEscan
Type in all cases: binding
Conditions in all cases: read-out: percent control
[1] = biological target: YSK4 (Homo sapiens (Human), UniProt Q56UN5)
Source text: (§1) Example 2. In Vitro Kinase Selectivity Profiling of the Compounds of the Present Disclosure

[2] = biological target: INSR (Homo sapiens (Human), UniProt P06213)
Source text: as §1

[3] = biological target: EPHA4 (Homo sapiens (Human), UniProt P54764)
Source text: as §1

[4] = biological target: LOK (Homo sapiens (Human), UniProt O94804)
Source text: as §1

[5] = biological target: DCAMKL2 (Homo sapiens (Human), UniProt Q8N568)
Source text: as §1

[6] = biological target: CDC2L2 (Homo sapiens (Human), UniProt Q9UQ88)
Source text: as §1

[7] = biological target: CDK2 (Homo sapiens (Human), UniProt P24941)
Source text: as §1

[8] = biological target: PFPK5(P.falciparum) (Plasmodium falciparum (isolate 3D7), UniProt P61075)
Source text: as §1

[9] = biological target: RIOK1 (Homo sapiens (Human), UniProt Q9BRS2)
Source text: as §1

[10] = biological target: PRKCQ (Homo sapiens (Human), UniProt Q04759)
Source text: as §1

[11] = biological target: TGFBR2 (Homo sapiens (Human), UniProt P37173)
Source text: as §1

[12] = biological target: JAK3(JH1domain-catalytic) (Homo sapiens (Human), UniProt P52333)
Source text: as §1

[13] = biological target: IKK-beta (Homo sapiens (Human), UniProt O14920)
Source text: as §1

[14] = biological target: KIT-autoinhibited (Homo sapiens (Human), UniProt P10721)
Source text: as §1

[15] = biological target: MAP3K15 (Homo sapiens (Human), UniProt Q6ZN16)
Source text: as §1

[16] = biological target: FLT3(R834Q) (Homo sapiens (Human), UniProt P36888, R834Q)
Source text: as §1

[17] = biological target: NEK5 (Homo sapiens (Human), UniProt Q6P3R8)
Source text: as §1

[18] = biological target: FGFR2 (Homo sapiens (Human), UniProt P21802)
Source text: as §1

[19] = biological target: ABL1(F317I)-phosphorylated (Homo sapiens (Human), UniProt P00519, F317I)
Source text: as §1

[20] = biological target: PRKD1 (Homo sapiens (Human), UniProt Q15139)
Source text: as §1

[21] = biological target: IKK-epsilon (Homo sapiens (Human), UniProt Q14164)
Source text: as §1

[22] = biological target: NEK4 (Homo sapiens (Human), UniProt P51957)
Source text: as §1

[23] = biological target: MEK4 (Homo sapiens (Human), UniProt P45985)
Source text: as §1

[24] = biological target: CSNK2A2 (Homo sapiens (Human), UniProt P19784)
Source text: as §1

[25] = biological target: TSSK3 (Homo sapiens (Human), UniProt Q96PN8)
Source text: as §1

[26] = biological target: ERBB4 (Homo sapiens (Human), UniProt Q15303)
Source text: as §1

[27] = biological target: AAK1 (Homo sapiens (Human), UniProt Q2M2I8)
Source text: as §1

[28] = biological target: CLK3 (Homo sapiens (Human), UniProt P49761)
Source text: as §1

[29] = biological target: CSNK1G2 (Homo sapiens (Human), UniProt P78368)
Source text: as §1

[30] = biological target: KIT (Homo sapiens (Human), UniProt P10721)
Source text: as §1

[31] = biological target: WNK1 (Homo sapiens (Human), UniProt Q9H4A3)
Source text: as §1

[32] = biological target: AKT1 (Homo sapiens (Human), UniProt P31749)
Source text: as §1

[33] = biological target: FGFR1 (Homo sapiens (Human), UniProt P11362)
Source text: as §1

[34] = biological target: AKT3 (Homo sapiens (Human), UniProt Q9Y243)
Source text: as §1

[35] = biological target: CIT (Homo sapiens (Human), UniProt O14578)
Source text: as §1

[36] = biological target: SGK (Homo sapiens (Human), UniProt O00141)
Source text: as §1

[37] = biological target: PFCDPK1(P.falciparum) (Plasmodium falciparum (isolate 3D7), UniProt P62344)
Source text: as §1

[38] = biological target: HCK (Homo sapiens (Human), UniProt P08631)
Source text: as §1

[39] = biological target: WEE1 (Homo sapiens (Human), UniProt P30291)
Source text: as §1

[40] = biological target: TNK1 (Homo sapiens (Human), UniProt Q13470)
Source text: as §1

[41] = biological target: GAK (Homo sapiens (Human), UniProt O14976)
Source text: as §1

LOK, sequence (O94804 whole entry): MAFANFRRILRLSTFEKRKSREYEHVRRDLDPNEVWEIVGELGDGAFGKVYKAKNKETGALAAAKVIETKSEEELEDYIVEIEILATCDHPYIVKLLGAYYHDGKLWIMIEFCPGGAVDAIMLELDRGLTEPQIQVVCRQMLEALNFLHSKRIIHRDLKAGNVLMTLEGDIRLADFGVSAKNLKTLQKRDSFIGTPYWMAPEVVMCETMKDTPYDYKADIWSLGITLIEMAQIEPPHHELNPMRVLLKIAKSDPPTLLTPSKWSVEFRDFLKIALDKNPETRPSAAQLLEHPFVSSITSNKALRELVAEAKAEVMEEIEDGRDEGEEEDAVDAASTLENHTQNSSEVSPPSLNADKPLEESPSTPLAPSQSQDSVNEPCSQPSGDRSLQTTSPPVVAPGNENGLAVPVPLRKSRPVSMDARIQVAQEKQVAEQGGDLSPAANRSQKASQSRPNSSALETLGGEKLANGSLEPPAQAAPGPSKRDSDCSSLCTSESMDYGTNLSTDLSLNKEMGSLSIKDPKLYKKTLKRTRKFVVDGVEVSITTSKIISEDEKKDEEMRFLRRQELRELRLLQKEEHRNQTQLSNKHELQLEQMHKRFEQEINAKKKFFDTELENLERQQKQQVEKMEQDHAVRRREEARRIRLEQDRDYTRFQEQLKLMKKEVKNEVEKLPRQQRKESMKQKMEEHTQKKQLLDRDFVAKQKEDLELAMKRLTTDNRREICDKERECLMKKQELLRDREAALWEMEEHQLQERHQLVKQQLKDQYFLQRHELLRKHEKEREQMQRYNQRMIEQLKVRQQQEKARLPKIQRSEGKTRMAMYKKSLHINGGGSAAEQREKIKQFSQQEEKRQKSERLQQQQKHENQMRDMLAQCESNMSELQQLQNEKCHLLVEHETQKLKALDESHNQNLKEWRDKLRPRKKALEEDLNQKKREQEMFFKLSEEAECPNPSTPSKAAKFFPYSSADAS
AAK1, sequence (Q2M2I8 whole entry): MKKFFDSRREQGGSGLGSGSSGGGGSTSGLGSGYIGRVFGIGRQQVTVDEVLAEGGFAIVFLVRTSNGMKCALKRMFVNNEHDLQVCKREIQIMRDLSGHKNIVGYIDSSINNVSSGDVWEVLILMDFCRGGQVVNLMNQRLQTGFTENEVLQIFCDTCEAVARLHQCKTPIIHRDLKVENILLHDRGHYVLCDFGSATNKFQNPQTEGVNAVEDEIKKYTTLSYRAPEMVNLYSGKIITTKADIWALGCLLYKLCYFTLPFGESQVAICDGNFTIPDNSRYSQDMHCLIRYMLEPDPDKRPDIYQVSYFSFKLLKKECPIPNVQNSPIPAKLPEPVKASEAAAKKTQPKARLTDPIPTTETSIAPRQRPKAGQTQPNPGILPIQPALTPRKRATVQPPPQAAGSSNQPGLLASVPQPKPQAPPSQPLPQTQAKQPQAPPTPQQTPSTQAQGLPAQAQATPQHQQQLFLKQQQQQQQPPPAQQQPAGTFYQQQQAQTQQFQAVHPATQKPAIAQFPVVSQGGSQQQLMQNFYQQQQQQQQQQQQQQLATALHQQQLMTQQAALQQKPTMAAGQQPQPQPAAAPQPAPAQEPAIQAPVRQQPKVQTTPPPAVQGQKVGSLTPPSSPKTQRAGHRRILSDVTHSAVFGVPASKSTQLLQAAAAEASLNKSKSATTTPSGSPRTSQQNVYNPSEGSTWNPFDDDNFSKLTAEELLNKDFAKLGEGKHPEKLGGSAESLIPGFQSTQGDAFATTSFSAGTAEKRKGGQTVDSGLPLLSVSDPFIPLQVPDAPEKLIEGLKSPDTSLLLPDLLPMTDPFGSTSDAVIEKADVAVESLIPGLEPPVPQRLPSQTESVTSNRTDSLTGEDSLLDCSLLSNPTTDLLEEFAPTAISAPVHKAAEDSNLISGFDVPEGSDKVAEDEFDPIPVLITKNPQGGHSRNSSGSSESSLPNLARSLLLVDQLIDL
MEK4, sequence (P45985 whole entry): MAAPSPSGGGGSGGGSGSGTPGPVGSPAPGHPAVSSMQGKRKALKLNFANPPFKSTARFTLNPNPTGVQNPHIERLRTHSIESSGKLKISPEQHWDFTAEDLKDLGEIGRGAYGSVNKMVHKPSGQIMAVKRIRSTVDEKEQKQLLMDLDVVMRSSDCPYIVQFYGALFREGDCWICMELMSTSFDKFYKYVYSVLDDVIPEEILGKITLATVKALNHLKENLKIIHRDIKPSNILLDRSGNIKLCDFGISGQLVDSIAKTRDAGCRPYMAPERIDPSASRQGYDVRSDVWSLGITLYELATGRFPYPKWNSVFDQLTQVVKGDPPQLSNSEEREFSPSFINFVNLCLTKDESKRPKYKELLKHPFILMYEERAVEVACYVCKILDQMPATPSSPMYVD
INSR, sequence (P06213 28-1382): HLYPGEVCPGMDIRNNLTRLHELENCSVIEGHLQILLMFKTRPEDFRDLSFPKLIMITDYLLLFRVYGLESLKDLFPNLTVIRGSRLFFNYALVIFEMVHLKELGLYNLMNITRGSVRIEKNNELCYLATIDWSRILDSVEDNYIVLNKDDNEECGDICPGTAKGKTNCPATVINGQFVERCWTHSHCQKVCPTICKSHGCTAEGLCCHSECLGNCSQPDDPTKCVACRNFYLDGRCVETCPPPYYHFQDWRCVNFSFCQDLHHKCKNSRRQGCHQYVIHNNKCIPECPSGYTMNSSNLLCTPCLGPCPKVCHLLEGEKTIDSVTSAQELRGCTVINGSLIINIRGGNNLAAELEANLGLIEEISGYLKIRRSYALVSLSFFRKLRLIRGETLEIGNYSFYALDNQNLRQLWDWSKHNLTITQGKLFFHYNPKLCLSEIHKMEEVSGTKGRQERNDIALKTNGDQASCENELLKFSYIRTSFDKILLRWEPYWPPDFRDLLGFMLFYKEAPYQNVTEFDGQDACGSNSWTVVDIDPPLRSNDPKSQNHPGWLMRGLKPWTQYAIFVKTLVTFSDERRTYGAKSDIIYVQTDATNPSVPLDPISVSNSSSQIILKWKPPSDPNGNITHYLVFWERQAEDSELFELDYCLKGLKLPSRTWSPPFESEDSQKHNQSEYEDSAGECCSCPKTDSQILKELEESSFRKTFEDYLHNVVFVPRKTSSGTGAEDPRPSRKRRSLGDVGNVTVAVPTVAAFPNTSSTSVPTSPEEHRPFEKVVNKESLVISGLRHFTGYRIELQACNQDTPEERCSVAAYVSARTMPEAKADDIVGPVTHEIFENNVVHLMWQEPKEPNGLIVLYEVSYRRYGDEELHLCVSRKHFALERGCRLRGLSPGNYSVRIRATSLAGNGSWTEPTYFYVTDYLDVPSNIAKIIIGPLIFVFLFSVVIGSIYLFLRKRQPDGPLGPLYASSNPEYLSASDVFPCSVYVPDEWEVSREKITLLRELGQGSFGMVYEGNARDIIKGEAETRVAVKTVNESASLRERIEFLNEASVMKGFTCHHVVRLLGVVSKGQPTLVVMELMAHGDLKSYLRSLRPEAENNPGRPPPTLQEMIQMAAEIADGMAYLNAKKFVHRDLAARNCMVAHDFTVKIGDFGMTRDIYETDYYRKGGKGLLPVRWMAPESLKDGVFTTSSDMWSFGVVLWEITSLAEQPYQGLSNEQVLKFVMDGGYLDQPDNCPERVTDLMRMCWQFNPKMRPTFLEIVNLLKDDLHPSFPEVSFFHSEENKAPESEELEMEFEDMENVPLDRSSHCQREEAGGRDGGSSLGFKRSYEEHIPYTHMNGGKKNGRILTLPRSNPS
AKT3, sequence (Q9Y243 whole entry): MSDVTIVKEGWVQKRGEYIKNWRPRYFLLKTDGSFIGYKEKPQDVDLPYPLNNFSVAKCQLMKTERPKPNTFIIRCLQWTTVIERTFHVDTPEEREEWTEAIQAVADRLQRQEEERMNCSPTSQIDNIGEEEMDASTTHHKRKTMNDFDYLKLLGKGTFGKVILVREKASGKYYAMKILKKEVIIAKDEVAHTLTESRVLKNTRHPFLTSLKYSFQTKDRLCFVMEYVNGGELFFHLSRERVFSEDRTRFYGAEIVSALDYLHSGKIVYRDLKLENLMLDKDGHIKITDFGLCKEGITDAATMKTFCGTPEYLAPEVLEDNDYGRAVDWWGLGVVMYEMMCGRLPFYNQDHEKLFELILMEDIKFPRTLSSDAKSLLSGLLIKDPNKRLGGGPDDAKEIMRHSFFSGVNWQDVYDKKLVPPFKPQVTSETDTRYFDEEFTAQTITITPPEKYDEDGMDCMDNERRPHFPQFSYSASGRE
KIT-autoinhibited, sequence (P10721 546-976 limits assumed): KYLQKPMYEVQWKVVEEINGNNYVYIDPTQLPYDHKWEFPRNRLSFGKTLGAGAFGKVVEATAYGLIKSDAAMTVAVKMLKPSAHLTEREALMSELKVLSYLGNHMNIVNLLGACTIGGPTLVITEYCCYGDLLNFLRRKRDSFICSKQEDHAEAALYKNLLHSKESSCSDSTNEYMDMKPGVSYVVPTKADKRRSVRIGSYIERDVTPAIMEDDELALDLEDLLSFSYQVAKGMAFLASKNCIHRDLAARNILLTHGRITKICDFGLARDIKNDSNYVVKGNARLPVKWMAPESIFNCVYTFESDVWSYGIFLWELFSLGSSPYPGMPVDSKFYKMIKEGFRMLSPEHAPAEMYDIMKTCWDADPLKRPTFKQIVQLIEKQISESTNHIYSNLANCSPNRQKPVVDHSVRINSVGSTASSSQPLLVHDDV
TSSK3, sequence (Q96PN8 whole entry): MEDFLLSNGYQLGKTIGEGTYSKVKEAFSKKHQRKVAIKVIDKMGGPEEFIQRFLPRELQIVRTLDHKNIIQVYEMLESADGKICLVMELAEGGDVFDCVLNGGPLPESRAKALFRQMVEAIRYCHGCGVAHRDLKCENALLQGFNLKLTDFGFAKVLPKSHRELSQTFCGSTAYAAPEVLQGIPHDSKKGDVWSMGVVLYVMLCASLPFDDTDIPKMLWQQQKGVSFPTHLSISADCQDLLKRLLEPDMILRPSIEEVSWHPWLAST

## CCN1CCN(Cc2ccc(Nc3nc4ccc(Oc5ccnc(NC(C)=O)c5)cc4n3C)cc2C(F)(F)F)CC1 [Compound I-2]
[1]
  remaining binding at 1 µM: 51%
[2]
  remaining binding at 1 µM: 20%
[3]
  remaining binding at 1 µM: 100%
[4]
  remaining binding at 1 µM: 21%
[5]
  remaining binding at 1 µM: 89%
[6]
  remaining binding at 1 µM: 0.1%
[7]
  remaining binding at 1 µM: 100%
[8]
  remaining binding at 1 µM: 100%
[9]
  remaining binding at 1 µM: 100%
[10]
  remaining binding at 1 µM: 67%
[11]
  remaining binding at 1 µM: 90%
[12]
  remaining binding at 1 µM: 84%
[13]
  remaining binding at 1 µM: 98%
[14]
  remaining binding at 1 µM: 76%
[15]
  remaining binding at 1 µM: 88%
[16]
  remaining binding at 1 µM: 100%
[17]
  remaining binding at 1 µM: 38%
[18]
  remaining binding at 1 µM: 100%
[19]
  remaining binding at 1 µM: 82%
[20]
  remaining binding at 1 µM: 99%
[21]
  remaining binding at 1 µM: 91%
[22]
  remaining binding at 1 µM: 56%
[23]
  remaining binding at 1 µM: 97%
[24]
  remaining binding at 1 µM: 82%
[25]
  remaining binding at 1 µM: 86%
[26]
  remaining binding at 1 µM: 84%
[27]
  remaining binding at 1 µM: 100%
[28]
  remaining binding at 1 µM: 94%
[29]
  remaining binding at 1 µM: 100%
[30]
  remaining binding at 1 µM: 0%
[31]
  remaining binding at 1 µM: 100%
[32]
  remaining binding at 1 µM: 94%
[33]
  remaining binding at 1 µM: 86%
[34]
  remaining binding at 1 µM: 99%
[35]
  remaining binding at 1 µM: 90%
[36]
  remaining binding at 1 µM: 85%
[37]
  remaining binding at 1 µM: 77%
[38]
  remaining binding at 1 µM: 89%
[39]
  remaining binding at 1 µM: 95%
[40]
  remaining binding at 1 µM: 76%
[41]
  remaining binding at 1 µM: 100%

## CCN1CCN(Cc2ccc(Nc3nc4ccc(Oc5ccnc(NC(C)=O)c5)c(C)c4n3C)cc2C(F)(F)F)CC1 [Compound I-6, N-(4-(2-(4-((4-ethylpiperazin-1-yl)methyl)-3-(trifluoromethyl)phenylamino)-1,7-dimethyl-1H-benzo[d]imidazol-6-yloxy)pyridin-2-yl)acetamide]
[1]
  remaining binding at 1 µM: 67%
[2]
  remaining binding at 1 µM: 12%
[3]
  remaining binding at 1 µM: 91%
[4]
  remaining binding at 1 µM: 0.45%
[5]
  remaining binding at 1 µM: 100%
[6]
  remaining binding at 1 µM: 0.2%
[7]
  remaining binding at 1 µM: 86%
[8]
  remaining binding at 1 µM: 91%
[9]
  remaining binding at 1 µM: 100%
[10]
  remaining binding at 1 µM: 97%
[11]
  remaining binding at 1 µM: 81%
[12]
  remaining binding at 1 µM: 72%
[13]
  remaining binding at 1 µM: 72%
[14]
  remaining binding at 1 µM: 82%
[15]
  remaining binding at 1 µM: 60%
[16]
  remaining binding at 1 µM: 57%
[17]
  remaining binding at 1 µM: 6.7%
[18]
  remaining binding at 1 µM: 82%
[19]
  remaining binding at 1 µM: 34%
[20]
  remaining binding at 1 µM: 95%
[21]
  remaining binding at 1 µM: 92%
[22]
  remaining binding at 1 µM: 56%
[23]
  remaining binding at 1 µM: 91%
[24]
  remaining binding at 1 µM: 100%
[25]
  remaining binding at 1 µM: 100%
[26]
  remaining binding at 1 µM: 94%
[27]
  remaining binding at 1 µM: 96%
[28]
  remaining binding at 1 µM: 95%
[29]
  remaining binding at 1 µM: 100%
[30]
  remaining binding at 1 µM: 0.55%
[31]
  remaining binding at 1 µM: 100%
[32]
  remaining binding at 1 µM: 89%
[33]
  remaining binding at 1 µM: 75%
[34]
  remaining binding at 1 µM: 100%
[35]
  remaining binding at 1 µM: 79%
[36]
  remaining binding at 1 µM: 96%
[37]
  remaining binding at 1 µM: 65%
[38]
  remaining binding at 1 µM: 34%
[39]
  remaining binding at 1 µM: 100%
[40]
  remaining binding at 1 µM: 82%
[41]
  remaining binding at 1 µM: 98%
